What is called IC50 is the concentration that gives 50% inhibition.

Read-outs that look alike come from different tables or passages of the source.

One assay addresses LSD1 (Homo sapiens, UniProt O60341). In words: LSD1 fluorescence coupling enzyme assay (HRP/Amplex Red, H3(1-21)K4me2 peptide), 10-dose IC50. It counts as biochemical. The following applies: 10 μM histone H3(1-21)K4me2 peptide substrate, 3-fold serial dilution from 100 μM. In short, it runs like this:
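Fluorescence coupled assay: LSD1 demethylation of 10 μM H3(1-21)K4me2 peptide produces FAD-dependent H2O2, detected via HRP/Amplex Red as resorufin (Ex/Em 535/590 nm). IC50 from 10 doses, 3-fold serial dilution from 100 μM, in duplicate.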

The test system of another assay is MV4;11 cells. The assay is described as follows: Cell Titer-Glo cell growth inhibition in MV4;11 cell line (Day 5 / Day 10). It counts as cell-based. The conditions noted are these: Homo sapiens. In outline:
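Cells seeded at 3750/well and treated with a 10-point, 4-fold dose curve from 0 to 50 µM; ATP-based luminescence viability read at Day 5. A portion is reseeded into fresh compound and media for 5 more days, read at Day 10; IC50 derived from luminescence.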
In general terms: ATP-based viability assays read luminescence as a measure of living cells.

[1] abbreviates: MV4-11, 120 h, Day 5, read-out: Cell Titer-Glo IC50 (5 d).
[2] abbreviates: MV4-11, 240 h, Day 10, read-out: Cell Titer-Glo IC50 (10 d).

For the compound `N#Cc1ccc(-c2cc(NC[C@H]3CCC[C@H](N)C3)nn2-c2ccc3nn(-c4ccccc4)cc3c2)cc1F` [Example 16, 4-(3-((((1S,3S)-3-aminocyclohexyl)methyl)amino)-1-(2-phenyl-2H-indazol-5-yl)-1H-pyrazol-5-yl)-2-fluorobenzonitrile], the half-inhibitory concentration (IC50) on LSD1, in the assay with MV4;11 cells (setting [1]) and with MV4;11 cells (setting [2]) was under 0.5 µM each time.

On to `N#Cc1ccc(-c2cc(NC[C@H]3CCC[C@H](N)C3)nn2-c2ccncc2)cc1F` [Example 17, 4-(3-((((1S,3S)-3-aminocyclohexyl)methyl)amino)-1-(pyridin-4-yl)-1H-pyrazol-5-yl)-2-fluorobenzonitrile], for which the IC50 is over 10 µM at LSD1, 1 to 10 µM with MV4;11 cells (setting [1]) and 1 to 10 µM with MV4;11 cells (setting [2]).

For the compound `COc1ccc(-n2nc(NC[C@H]3CCC[C@H](N)C3)cc2-c2ccc(C(F)(F)F)c(F)c2)cc1` [Example 18, N-(((1S,3S)-3-aminocyclohexyl)methyl)-5-(3-fluoro-4-(trifluoromethyl)phenyl)-1-(4-methoxyphenyl)-1H-pyrazol-3-amine], the IC50 on LSD1 was 1 to 10 µM; in the assay with MV4;11 cells (setting [1]) it was 0.5 to 1 µM; in the assay with MV4;11 cells (setting [2]), 0.5 to 1 µM.

Consider `N#Cc1ccc(-c2cc(NC[C@H]3CCC[C@H](N)C3)nn2-c2ccc(N3CCCC3)cc2)cc1F` [Example 19, 4-(3-((((1S,3S)-3-aminocyclohexyl)methyl)amino)-1-(4-(pyrrolidin-1-yl)phenyl)-1H-pyrazol-5-yl)-2-fluorobenzonitrile], for which the IC50 on LSD1, in the assay with MV4;11 cells (setting [1]) and with MV4;11 cells (setting [2]) was under 0.5 µM each time.

Regarding `CO[C@H]1CCN(c2ccc(-n3nc(NC[C@H]4CCC[C@H](N)C4)cc3-c3ccc(C#N)c(F)c3)c(F)c2)C1` [Example 20, 4-(3-((((1S,3S)-3-aminocyclohexyl)methyl)amino)-1-(2-fluoro-4-((S)-3-methoxypyrrolidin-1-yl)phenyl)-1H-pyrazol-5-yl)-2-fluorobenzonitrile], the IC50 against LSD1 and with MV4;11 cells (setting [2]) was under 0.5 µM in each case.

Turning to `Cn1cc2cc(-n3nc(NC[C@@H]4CCNC4)cc3-c3ccc(C#N)c(F)c3)ccc2n1` [Example 21R, (R)-2-fluoro-4-(1-(2-methyl-2H-indazol-5-yl)-3-((pyrrolidin-3-ylmethyl)amino)-1H-pyrazol-5-yl)benzonitrile], the IC50 on LSD1 and with MV4;11 cells (setting [1]) was 0.5 to 1 µM each time.

As to `Cn1cc2cc(-n3nc(NC[C@H]4CCNC4)cc3-c3ccc(C#N)c(F)c3)ccc2n1` [Example 21S, (S)-2-fluoro-4-(1-(2-methyl-2H-indazol-5-yl)-3-((pyrrolidin-3-ylmethyl)amino)-1H-pyrazol-5-yl)benzonitrile], the IC50 against LSD1 and in the assay on MV4;11 cells (setting [1]) was under 0.5 µM each time.

On to `COc1ccc(-n2nc(NCC3CCCNCC3)cc2-c2ccc(C#N)c(F)c2)cc1` (stereo not shown) [Example 22, 4-(3-((azepan-4-ylmethyl)amino)-1-(4-methoxyphenyl)-1H-pyrazol-5-yl)-2-fluorobenzonitrile], for which the values for the IC50 at LSD1, in the assay on MV4;11 cells (setting [1]) and in the assay with MV4;11 cells (setting [2]) were under 0.5 µM, 1 to 10 µM and under 0.5 µM, respectively.

Regarding `Cn1ncc2cc(-n3nc(NCC45CCN(CC4)CC5)cc3-c3ccc(C#N)c(F)c3)ccc21` [Example 23, 2-fluoro-4-(1-(1-methyl-1H-indazol-5-yl)-3-((quinuclidin-4-ylmethyl)amino)-1H-pyrazol-5-yl)benzonitrile], the half-inhibitory concentration (IC50) is under 0.5 µM against LSD1; under 0.5 µM with MV4;11 cells (120 h, Day 5, read-out: Cell Titer-Glo IC50 (5 d)); under 0.5 µM with MV4;11 cells (240 h, Day 10, read-out: Cell Titer-Glo IC50 (10 d)).

In the case of `N#Cc1ccc(-c2cc(NCC3CCCNCC3)nn2-c2ccc(N3CCCC3)cc2)cc1F` (stereo not shown) [Example 24, 4-(3-((azepan-4-ylmethyl)amino)-1-(4-(pyrrolidin-1-yl)phenyl)-1H-pyrazol-5-yl)-2-fluorobenzonitrile], the concentration for half-maximal inhibition (IC50) on LSD1, with MV4;11 cells (setting [1]) and with MV4;11 cells (setting [2]) was under 0.5 µM throughout.

For the compound `N#Cc1ccc(-c2cc(NCC3CCCNCC3)nn2-c2ccc(C(=O)N3CCCC3)cc2)cc1F` (stereo not shown) [Example 25, 4-(3-((azepan-4-ylmethyl)amino)-1-(4-(pyrrolidine-1-carbonyl)phenyl)-1H-pyrazol-5-yl)-2-fluorobenzonitrile], the concentration for half-maximal inhibition (IC50) is 1 to 10 µM against LSD1, 0.5 to 1 µM in the assay with MV4;11 cells (setting [1]) and under 0.5 µM with MV4;11 cells (setting [2]).

Regarding `N#Cc1ccc(-c2cc(NCC3CCCNCC3)nn2-c2ccc(N3CCS(=O)(=O)CC3)cc2)cc1F` (stereo not shown) [Example 26, 4-(3-((azepan-4-ylmethyl)amino)-1-(4-(1,1-dioxidothiomorpholino)-phenyl)-1H-pyrazol-5-yl)-2-fluorobenzonitrile], the 50% inhibitory concentration (IC50) against LSD1, in the assay on MV4;11 cells (setting [1]) and in the assay on MV4;11 cells (setting [2]) was under 0.5 µM each time.

As to `N#Cc1ccc(-c2cc(NCC3CCCNCC3)nn2-c2ccc(N3CCN(CCO)CC3)cc2)cc1F` (stereo not shown) [Example 27, 4-(3-((azepan-4-ylmethyl)amino)-1-(4-(4-(2-hydroxyethyl)piperazin-1-yl)phenyl)-1H-pyrazol-5-yl)-2-fluorobenzonitrile], the IC50 on LSD1, with MV4;11 cells (setting [1]) and in the assay with MV4;11 cells (setting [2]) was under 0.5 µM throughout.

As for `COc1ccc(-n2nc(NCC3CCCC(CN)C3)cc2-c2ccc(C#N)c(F)c2)cc1` (stereo not shown) [Example 28, 4-(3-(((-3-(aminomethyl)cyclohexyl)methyl)amino)-1-(4-methoxyphenyl)-1H-pyrazol-5-yl)-2-fluorobenzonitrile], the half-inhibitory concentration (IC50) on LSD1 was 0.5 to 1 µM; with MV4;11 cells (setting [1]), 1 to 10 µM; in the assay with MV4;11 cells (setting [2]), 1 to 10 µM.

Take `Cn1cc2cc(-n3nc(NC[C@@H]4CCC[C@@H](N)C4)c(Cl)c3-c3ccc(C#N)c(F)c3)ccc2n1` [Example 36, 4-(3-((((1R,3R)-3-aminocyclohexyl)methyl)amino)-4-chloro-1-(2-methyl-2H-indazol-5-yl)-1H-pyrazol-5-yl)-2-fluorobenzonitrile]: the IC50 at LSD1 was 1 to 10 µM; with MV4;11 cells (setting [1]), 0.5 to 1 µM; in the assay on MV4;11 cells (setting [2]) it was under 0.5 µM.

Consider `Cn1cc2cc(-n3nc(NC[C@H]4CCC[C@H](N)C4)c(Cl)c3-c3ccc(C#N)c(F)c3)ccc2n1` [Example 37, 4-(3-((((1S,3S)-3-aminocyclohexyl)methyl)amino)-4-chloro-1-(2-methyl-2H-indazol-5-yl)-1H-pyrazol-5-yl)-2-fluorobenzonitrile], for which the IC50 against LSD1, in the assay with MV4;11 cells (setting [1]) and with MV4;11 cells (setting [2]) was under 0.5 µM in each case.

As for `COc1ccc(-n2nc(NCc3cccc(N)c3)cc2-c2ccc(C#N)c(F)c2)cc1` [Example 40, 4-(3-((3-aminobenzyl)amino)-1-(4-methoxyphenyl)-1H-pyrazol-5-yl)-2-fluorobenzonitrile], the IC50 against LSD1 is 1 to 10 µM; in the assay with MV4;11 cells (setting [2]), over 10 µM.

Turning to `COc1ccc(-n2nc(NC[C@H]3C[C@@H](N)C3)cc2-c2ccc(C#N)c(F)c2)cc1` [Example 41, 4-(3-((((1s,3s)-3-aminocyclobutyl)methyl)amino)-1-(4-methoxyphenyl)-1H-pyrazol-5-yl)-2-fluorobenzonitrile], the IC50 at LSD1, in the assay on MV4;11 cells (setting [1]) and in the assay on MV4;11 cells (setting [2]) was under 0.5 µM each time.

For the compound `COc1ccc(-n2nc(NC[C@H]3C[C@H](N)C3)cc2-c2ccc(C#N)c(F)c2)cc1` [Example 42, 4-(3-((((1r,3r)-3-aminocyclobutyl)methyl)amino)-1-(4-methoxyphenyl)-1H-pyrazol-5-yl)-2-fluorobenzonitrile], the concentration for half-maximal inhibition (IC50) was 1 to 10 µM against LSD1, 1 to 10 µM with MV4;11 cells (setting [1]) and under 0.5 µM in the assay with MV4;11 cells (setting [2]).

For `COC1CCN(c2ccc(-n3nc(NC[C@H]4CCC[C@H](N)C4)cc3-c3ccc(C#N)c(F)c3)cc2)CC1` [Example 43, 4-(3-((((1S,3S)-3-aminocyclohexyl)methyl)amino)-1-(4-(4-methoxypiperidin-1-yl)phenyl)-1H-pyrazol-5-yl)-2-fluorobenzonitrile], the IC50 against LSD1 and in the assay with MV4;11 cells (setting [2]) was under 0.5 µM throughout.

For the compound `CN1CCN(c2ccc(-n3nc(NC[C@H]4CCC[C@H](N)C4)cc3-c3ccc(C#N)c(F)c3)cc2)CC1` [Example 44, 4-(3-((((1S,3S)-3-aminocyclohexyl)methyl)amino)-1-(4-(4-methylpiperazin-1-yl)phenyl)-1H-pyrazol-5-yl)-2-fluorobenzonitrile], the values for the IC50 on LSD1, with MV4;11 cells (setting [1]) and in the assay with MV4;11 cells (setting [2]) were 0.5 to 1 µM, under 0.5 µM and under 0.5 µM, respectively.

For `CN1CCN(c2cccc(-n3nc(NC[C@H]4CCC[C@H](N)C4)cc3-c3ccc(C#N)c(F)c3)c2)CC1` [Example 45, 4-(3-((((1S,3S)-3-aminocyclohexyl)methyl)amino)-1-(3-(4-methylpiperazin-1-yl)phenyl)-1H-pyrazol-5-yl)-2-fluorobenzonitrile], the IC50 on LSD1 was 1 to 10 µM; with MV4;11 cells (setting [1]), 0.5 to 1 µM; in the assay with MV4;11 cells (setting [2]) it was under 0.5 µM.

For the compound `N#Cc1ccc(-c2cc(NC[C@H]3CCC[C@H](N)C3)nn2-c2ccc(N3CCN(CCO)CC3)cc2)cc1F` [Example 46, 4-(3-((((1S,3S)-3-aminocyclohexyl)methyl)amino)-1-(4-(4-(2-hydroxyethyl)piperazin-1-yl)phenyl)-1H-pyrazol-5-yl)-2-fluorobenzonitrile], the concentration for half-maximal inhibition (IC50) at LSD1, in the assay with MV4;11 cells (setting [1]) and in the assay with MV4;11 cells (setting [2]) was under 0.5 µM each time.

`CS(=O)(=O)N1CCN(c2cccc(-n3nc(NC[C@H]4CCC[C@H](N)C4)cc3-c3ccc(C#N)c(F)c3)c2)CC1` [Example 49, 4-(3-((((1S,3S)-3-aminocyclohexyl)methyl)amino)-1-(3-(4-(methylsulfonyl)piperazin-1-yl)phenyl)-1H-pyrazol-5-yl)-2-fluorobenzonitrile]: the IC50 against LSD1 is 1 to 10 µM; in the assay with MV4;11 cells (setting [1]), 1 to 10 µM; in the assay with MV4;11 cells (setting [2]), under 0.5 µM.

Values taken from US20250032454A1, “KDM1A INHIBITORS FOR THE TREATMENT OF DISEASE” (Imago Biosciences, Inc., priority 2021, published 2025).
